Where a name gives a salt, the structure may show the parent alone. Values belong to the molecule of their own block, whether it stands above or below them.
Columns and labels:
[1] = molecular target: T1, Mer (Homo sapiens, UniProt Q12866); test: Mer autophosphorylation ELISA in transient transfected 293A cells; format: cell-based; settings: Table 3 Cellular Activities; MERTK-transfected 293A cells, phospho-Mer ELISA
T1 construct: host or cells: 293A cells (Thermo Fisher #R70507)
T1 sequence (Q12866 21-999): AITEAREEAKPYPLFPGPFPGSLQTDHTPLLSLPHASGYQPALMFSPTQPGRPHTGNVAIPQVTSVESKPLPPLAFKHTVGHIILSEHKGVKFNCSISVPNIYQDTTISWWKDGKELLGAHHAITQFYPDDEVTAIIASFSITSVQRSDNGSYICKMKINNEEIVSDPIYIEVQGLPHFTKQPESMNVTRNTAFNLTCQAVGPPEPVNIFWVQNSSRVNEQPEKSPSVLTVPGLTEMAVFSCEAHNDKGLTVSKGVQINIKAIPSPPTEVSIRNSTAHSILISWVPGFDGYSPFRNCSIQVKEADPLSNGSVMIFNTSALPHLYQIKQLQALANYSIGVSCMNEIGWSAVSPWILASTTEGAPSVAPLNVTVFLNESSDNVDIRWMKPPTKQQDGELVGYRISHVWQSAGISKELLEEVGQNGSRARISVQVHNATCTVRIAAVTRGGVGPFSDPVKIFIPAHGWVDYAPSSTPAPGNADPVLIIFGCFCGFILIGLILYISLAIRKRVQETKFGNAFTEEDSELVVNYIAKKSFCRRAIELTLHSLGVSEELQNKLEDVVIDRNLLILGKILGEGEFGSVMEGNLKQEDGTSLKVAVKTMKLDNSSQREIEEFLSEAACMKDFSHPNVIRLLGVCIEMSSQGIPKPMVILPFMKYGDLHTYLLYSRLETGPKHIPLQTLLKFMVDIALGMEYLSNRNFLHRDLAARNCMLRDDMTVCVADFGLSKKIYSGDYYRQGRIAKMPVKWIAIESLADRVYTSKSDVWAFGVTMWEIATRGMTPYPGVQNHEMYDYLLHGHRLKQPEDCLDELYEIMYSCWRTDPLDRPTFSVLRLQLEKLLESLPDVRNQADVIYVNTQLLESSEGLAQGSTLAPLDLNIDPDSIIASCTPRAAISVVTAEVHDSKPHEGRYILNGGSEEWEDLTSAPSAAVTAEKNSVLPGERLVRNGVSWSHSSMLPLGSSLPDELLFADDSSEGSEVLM
Summary of the method: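 Phospho-Mer quantified by ELISA in lysates of transiently MERTK-transfected 293A cells after 1 h exposure to an 8-point compound series, serum-free, 0.3% DMSO. Activity normalized between DMSO-treated (100%) and reference inhibitor-treated (0%) lysates; IC50 via 4-parameter nonlinear regression.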

[2] = molecular target: Met (Homo sapiens, UniProt P08581); test: Met autophosphorylation ELISA in PC-3 cells; format: cell-based; parameters: endogenous in cells; host or cells: PC-3 prostate cancer cells (ATCC #CRL-1435); settings: Table 3 Cellular Activities, HGF-stimulated, phospho-Met ELISA, read-out: c-Met IC50
Sequence of Met (P08581 25-1390): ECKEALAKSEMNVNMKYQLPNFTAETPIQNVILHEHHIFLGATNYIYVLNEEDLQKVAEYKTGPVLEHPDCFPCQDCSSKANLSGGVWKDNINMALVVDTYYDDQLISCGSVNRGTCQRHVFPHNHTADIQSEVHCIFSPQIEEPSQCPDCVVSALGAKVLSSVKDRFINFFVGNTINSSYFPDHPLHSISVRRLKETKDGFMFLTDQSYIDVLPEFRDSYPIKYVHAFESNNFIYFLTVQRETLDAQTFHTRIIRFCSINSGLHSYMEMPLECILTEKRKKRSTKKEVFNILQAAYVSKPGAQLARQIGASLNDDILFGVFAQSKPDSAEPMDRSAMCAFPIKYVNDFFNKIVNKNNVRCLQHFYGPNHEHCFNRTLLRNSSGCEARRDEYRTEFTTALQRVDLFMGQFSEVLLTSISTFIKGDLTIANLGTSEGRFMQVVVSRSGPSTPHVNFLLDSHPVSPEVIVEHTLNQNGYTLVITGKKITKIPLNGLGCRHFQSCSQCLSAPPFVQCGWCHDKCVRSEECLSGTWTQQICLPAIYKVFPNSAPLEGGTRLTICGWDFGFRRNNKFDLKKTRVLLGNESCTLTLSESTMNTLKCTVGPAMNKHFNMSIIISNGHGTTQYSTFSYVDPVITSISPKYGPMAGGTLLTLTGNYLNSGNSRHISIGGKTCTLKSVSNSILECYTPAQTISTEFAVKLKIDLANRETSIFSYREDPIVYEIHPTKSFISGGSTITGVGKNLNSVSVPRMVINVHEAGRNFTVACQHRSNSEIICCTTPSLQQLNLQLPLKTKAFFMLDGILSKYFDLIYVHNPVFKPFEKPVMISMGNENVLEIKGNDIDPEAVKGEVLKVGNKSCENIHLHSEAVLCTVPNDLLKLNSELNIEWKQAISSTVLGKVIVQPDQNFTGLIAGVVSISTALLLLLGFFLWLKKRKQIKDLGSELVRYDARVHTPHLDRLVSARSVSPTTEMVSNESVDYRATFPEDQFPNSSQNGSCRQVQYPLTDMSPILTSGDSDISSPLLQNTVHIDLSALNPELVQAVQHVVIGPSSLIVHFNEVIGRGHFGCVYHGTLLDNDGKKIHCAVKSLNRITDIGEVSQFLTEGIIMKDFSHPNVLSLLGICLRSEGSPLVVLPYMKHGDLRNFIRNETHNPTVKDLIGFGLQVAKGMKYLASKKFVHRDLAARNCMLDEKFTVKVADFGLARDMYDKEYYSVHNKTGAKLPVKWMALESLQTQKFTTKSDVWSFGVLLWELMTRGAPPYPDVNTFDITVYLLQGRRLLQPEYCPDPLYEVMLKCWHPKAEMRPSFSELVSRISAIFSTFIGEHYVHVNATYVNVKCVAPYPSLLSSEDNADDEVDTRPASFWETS
Summary of the method: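 IC50 derived by 4-parameter logistic regression of phospho-Met (panTyr) sandwich ELISA signal, scaled between HGF-stimulated DMSO and reference-inhibitor lysates. PC-3 cells, serum-starved 3 h, received an 8-point compound series (0.3% DMSO) for 1 h before 10 min stimulation with 100 ng/mL human HGF.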

Compound: COc1ccc2nccc(Oc3ccc(NC(=O)c4ccc(C)n(-c5ncc(F)cc5C)c4=O)cc3F)c2n1 [Compound 53, N-[3-Fluoro-4-[(6-methoxy-1,5-naphthyridin-4-yl)oxy]phenyl]-1-(5-fluoro-3-methylpyridin-2-yl)-6-methyl-2-oxopyridine-3-carboxamide]
IC50 [1]: ≤ 100 nM
IC50 [2]: ≤ 100 nM

Compound: COc1cc2nccc(Oc3ccc(NC(=O)c4cnc(C)c(-c5cccs5)c4O)cc3)c2nc1OC [Compound 256, N-[4-[(6,7-Dimethoxy-1,5-naphthyridin-4-yl)oxy]phenyl]-4-hydroxy-6-methyl-5-thiophen-2-ylpyridine-3-carboxamide]
IC50 [1]: ≤ 100 nM
IC50 [2]: ≤ 100 nM

Compound: COc1cc2nccc(Oc3ccc(NC(=O)c4c(C)nc(C)c(-c5ccc(F)cn5)c4O)cc3F)c2nc1OC [Compound 218, N-[4-[(6,7-Dimethoxy-1,5-naphthyridin-4-yl)oxy]-3-fluorophenyl]-5-(5-fluoropyridin-2-yl)-4-hydroxy-2,6-dimethylpyridine-3-carboxamide]
IC50 [1]: ≤ 100 nM
IC50 [2]: ≤ 100 nM

Compound: COc1cc2nccc(Oc3ccc(NC(=O)c4c5n(cc(-c6ccc(C)s6)c4=O)CCOC5)cc3F)c2nc1OC [Compound 304, N-[4-[(6,7-Dimethoxy-1,5-naphthyridin-4-yl)oxy]-3-fluorophenyl]-7-(5-methylthiophen-2-yl)-8-oxo-3,4-dihydro-1H-pyrido[2,1-c][1,4]oxazine-9-carboxamide]
IC50 [1]: ≤ 100 nM
IC50 [2]: ≤ 100 nM

Compound: COc1cnc2c(Oc3ccc(NC(=O)c4cc(C(C)=O)c(C)n(-c5ccco5)c4=O)cc3F)ccnc2c1 [Compound 238, 5-Acetyl-N-[3-fluoro-4-[(7-methoxy-1,5-naphthyridin-4-yl)oxy]phenyl]-1-(furan-2-yl)-6-methyl-2-oxopyridine-3-carboxamide]
IC50 [1]: 300 to 1000 nM
IC50 [2]: 300 to 1000 nM

The next lines start with the values.

IC50 [1]: ≤ 100 nM
IC50 [2]: ≤ 100 nM
Compound: COc1cc2nccc(Oc3ccc(NC(=O)c4cn(CCF)c(C)c(-c5cccs5)c4=O)cc3F)c2nc1OC [Compound 327, N-[4-[(6,7-Dimethoxy-1,5-naphthyridin-4-yl)oxy]-3-fluorophenyl]-1-(2-fluoroethyl)-6-methyl-4-oxo-5-thiophen-2-ylpyridine-3-carboxamide]

IC50 [1]: ≤ 100 nM
IC50 [2]: ≤ 100 nM
Compound: COc1cc2nccc(Oc3ccc(NC(=O)c4cc(C(C)=O)c(C)n(-c5ccc(F)cn5)c4=O)cc3F)c2nc1OC [Compound 59, 5-Acetyl-N-[4-[(6,7-dimethoxy-1,5-naphthyridin-4-yl)oxy]-3-fluorophenyl]-1-(5-fluoropyridin-2-yl)-6-methyl-2-oxopyridine-3-carboxamide]

IC50 [1]: ≤ 100 nM
IC50 [2]: ≤ 100 nM
Compound: COc1cc2nccc(Oc3ccc(NC(=O)c4cc(C#N)c(C)n(-c5ccc(F)cn5)c4=O)cc3F)c2nc1OC [Compound 56, 5-Cyano-N-[4-[(6,7-dimethoxy-1,5-naphthyridin-4-yl)oxy]-3-fluorophenyl]-1-(5-fluoropyridin-2-yl)-6-methyl-2-oxopyridine-3-carboxamide]

IC50 [1]: ≤ 100 nM
IC50 [2]: ≤ 100 nM
Compound: COc1cc2nccc(Oc3ccc(NC(=O)c4cccn(-c5cc[n+]([O-])cc5)c4=O)cc3F)c2nc1OC [Compound 247, N-[4-[(6,7-Dimethoxy-1,5-naphthyridin-4-yl)oxy]-3-fluorophenyl]-1-(1-oxidopyridin-1-ium-4-yl)-2-oxopyridine-3-carboxamide hydrochloride]

IC50 [1]: ≤ 100 nM
IC50 [2]: ≤ 100 nM
Compound: COc1cc2nccc(Oc3ccc(NC(=O)c4cc(C(C)=O)c(C)n(-c5ccoc5)c4=O)cc3F)c2nc1OC [Compound 235, 5-Acetyl-N-[4-[(6,7-dimethoxy-1,5-naphthyridin-4-yl)oxy]-3-fluorophenyl]-1-(furan-3-yl)-6-methyl-2-oxopyridine-3-carboxamide]

IC50 [1]: ≤ 100 nM
IC50 [2]: ≤ 100 nM
Compound: COc1cc2nccc(Oc3ccc(NC(=O)c4ccc(C)n(-c5cc[n+]([O-])cc5)c4=O)cc3F)c2nc1OC [Compound 231, N-[4-[(6,7-Dimethoxy-1,5-naphthyridin-4-yl)oxy]-3-fluorophenyl]-6-methyl-1-(1-oxidopyridin-1-ium-4-yl)-2-oxopyridine-3-carboxamide]
